Numbers after ± are expanded uncertainties.
Settings: Liquid, Ebulliometric method (Recirculating still)

| Structure (SMILES) | vapor or sublimation pressure (355.2 K) | vapor or sublimation pressure (372.8 K) |
| --- | --- | --- |
| CC(C)(C)O [2-methylpropan-2-ol] | 100 ± 2 kPa | – |
| O [water] | – | 100 ± 2 kPa |
